# Measurements: patent US20110190249A1, “THERAPEUTIC METHODS AND USES OF SAPOGENINS AND THEIR DERIVATIVES” (PHYTOPHARM PLC, priority 2002, published 2011)
# Marks after values point to notes of the source that are not given here.
# Legend:
# [1] = test system: muscarinic acetylcholine receptor; experiment: Brain muscarinic acetylcholine receptor density in aged rats (dual-site competitive ligand binding); type: in vivo, rat; conditions: 18 mg kg−1 day−1 oral, 2-3 months
# Experimental: (§1) Aged Sprague-Dawley rats aged were divided into different groups, one control and groups treated for 2-3 months with either sarsasapogenin, episarsasapogenin cathylate or smilagenin (18 mg kg^−1 day^−1, n=10). A control group (n=14) of untreated young rats was also included in the study. The daily dose of drug was mixed in a minimum amount of food and was administered every morning separately to each rat.
# Muscarinic acetylcholine receptor density in the brain was measured. Tissue was prepared as follows: brains were removed quickly after decapitation, frozen in dry ice, and transferred to a freezer. The brains were homogenised and the pellet was finally suspended in buffer.
# The dual-site competitive ligand binding assay was used to measure muscarinic acetylcholine receptor density.
# [2] = test system: muscarinic acetylcholine receptor; experiment: Brain M receptor density (3H-QNB) in amyloid β + ibotenic acid rat model; type: in vivo; conditions: 18 mg/kg/day gastric tube, two months; model 713 ± 48, control 859 ± 101
# Experimental: (§2) An in vivo model of Alzheimer's disease was used to model neurodegeneration. In this model the neurotoxic agents (amyloid β and ibotenic acid) are injected into the brain of the rat. This leads to neuronal loss, receptor loss and cognitive impairment. […] In addition the co-injection of amyloid β with a small amount of ibotenic acid into the rat hippocampus synergistically produces neuronal loss with infiltration of glial cells not only adjacent but also far from the injected site (Morimoto et al., 1998: Neuroscience, 84, 479-487).
# (§3) Our studies used the method of Morimoto (Morimoto et al., 1998: Neuroscience, 84, 479-487) with some modifications (unilateral instead of bilateral injection). Three months old, Sprague Dawley rats, were randomly divided into different groups. Injection of amyloid β1-40 and ibotenic acid (both from Sigma) was accomplished by means of a stereotaxic instrument (Stoelting Co.) and the coordinates were AP=−0.5 mm […], L=−2.8 mm […], H=−7.0 mm (ventral to dura). The dose for each rat was amyloid β1-40 (4 μg) and ibotenic acid (1 μg) in 1 μl of saline. The injection was completed in 20 min, and the needle was withdrawn 10 min later. Then the skin was sutured.
# (§4) The 8 groups were: • Operated control injected with normal saline (control) • Model (control injected with amyloid β+ibotenic acid) • Model+Episarsasapogenin cathylate (18 mg/kg/day)* • Model+Sarsasapogenin cathylate (18 mg/kg/day)* • Model+Episarsasapogenin ethylsuccinate (18 mg/kg/day) (comparison) • Model+Episarsasapogenin (18 mg/kg/day)* • Model+Epismilagenin (18 mg/kg/day)* • Model+Diosgenin (i.e. negative control, 18 mg/kg/day)
# (§5) Episarsasapogenin cathylate, sarsasapogenin cathylate, episarsasapogenin ethylsuccinate (comparison compound), episarsasapogenin, epismilagenin and diosgenin (all at a dosage of 18 mg/kg/day) were administered to animals as stable suspensions in CMC—Na (0.5%) once daily through a gastric tube. The control and the model group were given the same volume of CMC—Na (0.5%) once daily. The drugs and vehicles were given for a period of two months, starting 20 days before operation.
# Muscarinic acetylcholine receptor density was assessed. The brain samples were homogenised, centrifuged, and the pellet of centrifugation at 27000×g was re-homogenised and used for measurement. The concentration of ^3H-QNB was chosen at the saturation range. After incubation and separation, the bound portion was measured by liquid scintillation counter.
# [3] = test system: rat primary cortical neurones; experiment: Prevention of glutamate-induced neurodegeneration (LDH release), pre-treatment; type: cell-based; conditions: 30 nM, given 24 h before glutamate; LDH 24 h after glutamate; control = 100
# Experimental: The objective of this study was to examine the effects of sarsasapogenin, episarsasapogenin cathylate, episarsasapogenin, epismilagenin and smilagenin on the survival of rat primary cortical neurones exposed to glutamate, which is known to induce neuro degeneration.
# Rat cortical neurones were cultured for 10 days; at day 10 the medium was changed to a serum-free defined medium. On day 12, 24 hours before glutamate exposure, cultures were washed and medium was replaced with fresh medium containing positive control (β-oestradiol), test compounds (sarsasapogenin, episarsasapogenin cathylate, episarsasapogenin, epismilagenin and smilagenin) or vehicle control (DMSO, 0.25%) or diosgenin as negative control.
# On day 13, cultures were exposed to glutamate. After the incubation period, the cultures were washed with and placed in fresh medium, supplemented with relevant compounds or vehicle to evaluate their protective effects, 24 h after glutamate exposure.
# Neuronal cell survival was evaluated by measuring lactate dehydrogenase (LDH) activity released in the media 24 h after test compound treatment or glutamate+test compound exposure, using the CytoTox 96 non-radioactive kit and quantitated by measuring wavelength absorbance at 450 nm.
# [4] = test system: Sprague Dawley rats injected with amyloid β1-40 and ibotenic acid; experiment: Step-through test in amyloid β + ibotenic acid rat model; type: in vivo; conditions: 18 mg/kg/day gastric tube, two months; errors in 5 min; model 4.00 ± 2.40, control 0.60 ± 0.70
# Experimental: as §2, §3, §4, §5
# Step-Through Test: learning and memory. The effect of test compounds on learning and memory was assessed using the step-through test. A 60×15×15 cm box, divided into 2 equally sized rooms, one dark room with copper rod base, which was electrically charged (40 V ac) when in use, while the other was a light room but not electrically charged. Between the two rooms there is an opening (hole) for the rat to go through. The experiment is carried out for each rat on two consecutive days. The first day is for training; when the rat is adapted in the box for the first 3 min, then put in the light room, with its back toward the hole, and the copper rods of the dark room are charged for 5 min. The second day is for testing, when the number of crosses in 5 min are recorded. Improvements in memory are signalled by a reduction in the number of crosses.
# aged Sprague-Dawley rats = experiment: Y-maze learning and memory test in aged rats; type: in vivo, rat; conditions: 18 mg kg−1 day−1 oral in food, 3 months
# Experimental: as §1
# A Y-maze apparatus was used for the learning and memory test. On the floor of each arm of the Y-maze is an array of copper rods to which electric current is applied whenever needed, with adjustable voltage. Each arm is 45 cm long and has a 15 W lamp at the end, which is turned on when needed. After 3 months drug administration, each rat was trained for 7 consecutive days, as follows. For each training session, the rat was put into one arm of the Y-maze, after two minutes rest, an electrical current was applied to the copper rods and the lamp of the clockwise arm was illuminated to indicate the non-stimulation area. If the rat went into that arm, one correct response was recorded, otherwise, one wrong response was recorded: This stimulation-response test was repeated 20 times each day, with a pause of 5 sec between each two consecutive tests. The number of correct responses following the twenty tests on the seventh day was used to express learning ability, (the higher the number the better the learning ability). The rats were then left resting for 30 days and the procedure was repeated once more. The number of correct responses of the 20 tests after the 30 day rest period was used to represent the memory ability
smiles,measurement,setting,value
CCOC(=O)O[C@@H]1CC[C@@]2(C)[C@H](CC[C@@H]3[C@@H]2CC[C@]2(C)[C@@H]4[C@H](C[C@@H]32)O[C@]2(CC[C@H](C)CO2)[C@H]4C)C1 [episarsasapogenin cathylate],Muscarinic acetylcholine receptor density in brain,[1],significantly restored
same,M receptor density,[2],877 ± 89* fmol/mg/protein
same,"Prevention of glutamate-induced neurodegeneration, Mean ± s.e.m (%)",[3],74 ± 3%
same,Learning and memory Step through test Error No,[4],1.36 ± 0.92*
same,Learning and memory ability (Y-maze),aged Sprague-Dawley rats,restored the learning and memory ability
